Measurements from US6552088B2, “Biphenyl derivatives” (Hoffmann-La Roche Inc., priority 1999, dated 2003).

Assays:
human NK-1 receptor = molecular target: T1, human NK-1 receptor (Homo sapiens, UniProt P25103); test: Affinity for the NK-1 receptor, [3H] substance P displacement binding assay; conditions: human NK-1 receptors in CHO cells (Semliki virus expression system); [3H] substance P 0.6 nM; 60 min at room temperature; read-out: affinity to the NK-1 receptor, given as pKi (converted)
T1 construct: expressed in transfected cells; host or cells: CHO cells infected using the Semliki virus expression system; membrane suspension
Description: The affinity of test compounds for the NK-1 receptor was evaluated at human NK-1 receptors in CHO cells infected with the human NK-1 receptor (using the Semliki virus expression system) and radiolabelled with [3H] substance P (final concentration 0.6 nM). Binding assays were performed in HEPES buffer (50 mM, pH 7.4) containing BSA (0.04%) leupeptin (8 μg/ml), MnCl2 (3 mM) and phosphoramidon (2 μM). Binding assays consisted of 250 μl of membrane suspension (1.25×10^5 cells/assay tube), […] of buffer of displacing agent and 125 μl of [3H] substance P. Displacement curves were determined with at least seven concentrations of the compound. The assay tubes were incubated for 60 min at room temperature after which time the tube contents were rapidly filtered under vacuum through GF/C filters presoaked for 60 min with PEI (0.3%) with 2×2 ml washed of HEPES buffer (50 mM, pH 7.4). The radioactivity retained on the filters was measured by scintillation counting. All assays were performed in triplicate in at least 2 separate experiments.

T1 sequence (P25103 whole entry): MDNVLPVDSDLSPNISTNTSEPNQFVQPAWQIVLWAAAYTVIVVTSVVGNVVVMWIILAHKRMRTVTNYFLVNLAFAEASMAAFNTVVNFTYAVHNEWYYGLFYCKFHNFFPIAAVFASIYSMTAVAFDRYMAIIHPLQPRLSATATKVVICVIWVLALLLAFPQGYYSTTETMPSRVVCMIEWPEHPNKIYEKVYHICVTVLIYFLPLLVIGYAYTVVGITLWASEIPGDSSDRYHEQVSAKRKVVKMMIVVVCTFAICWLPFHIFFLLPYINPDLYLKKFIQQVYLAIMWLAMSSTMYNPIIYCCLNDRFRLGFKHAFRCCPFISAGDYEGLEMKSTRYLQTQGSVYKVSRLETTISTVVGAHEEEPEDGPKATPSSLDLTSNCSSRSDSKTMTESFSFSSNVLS

Row | SMILES | melting point [°C] | Ki (human NK-1 receptor) [nM]
1 | CN(Cc1cc(Cl)cc(Cl)c1)C(=O)c1ccccc1-c1ccccc1 [Example 2, Biphenyl-2-carboxylic acid (3,5-dichloro-benzyl)-methyl-amide] | 126 to 128 | 
2 | Cc1cc(CN(C)C(=O)c2ccccc2-c2ccccc2)cc(C(F)(F)F)c1 [Example 3, Biphenyl-2-carboxylic acid methyl-(3-methyl-5-trifluoromethyl-benzyl)-amide] | 126.7 to 127.1 | 

Other lines, results leading:

Row | melting point [°C] | Ki (human NK-1 receptor) [nM] | SMILES
3 |  | 5.25 | Cc1ccccc1-c1ccc(N)cc1N(C)C(=O)C(C)(C)c1cc(C(F)(F)F)cc(C(F)(F)F)c1 [Example 18, N-(4-Amino-2′-methyl-biphenyl-2-yl)-2-(3,5-bis-trifluoromethyl-phenyl)-N-methyl-isobutyramide]
4 |  | 9.77 | CNc1ccc(-c2ccccc2C)c(N(C)C(=O)C(C)(C)c2cc(C(F)(F)F)cc(C(F)(F)F)c2)c1 [Example 20, 2-(3,5-Bis-trifluoromethyl-phenyl)-N-methyl-N-(2′-methyl-4-methylamino-biphenyl-2-yl)-isobutyramide]
5 |  | 1.45 | Cc1ccccc1-c1cc(N2CCN(C)CC2)ccc1C(=O)N(C)Cc1cc(C(F)(F)F)cc(C(F)(F)F)c1 [Example 27, 2′-Methyl-5-(4-methyl-piperazin-1-yl)-biphenyl-2-carboxylic acid (3,5-bis-trifluoromethyl-benzyl)-methyl-amide]
